Data as given in paper PMC9235172, “SHTXTHHly, an extracellular secretion platform for the preparation of bioactive peptides and proteins in Escherichia coli” (Microbial Cell Factories, 2022).
Residues, ends and D or L forms follow the SMILES beside them.

How the values were obtained:
E. coli 25922 = E. coli 25922 in MHB, 37 °C, 18 h, OD600, triplicate
Method: Fig. 4 Bioactivities determination of the produced AMPs. Different concentrations (0–4000 nM) of cCeA and rCeA (A), or cLL37 and rLL37 (B), were incubated with E. coli 25,922 at 37 °C for 18 h, then the OD600 values were detected. Different concentrations (0–64 μM) of cA12 and rA12 (C) were incubated with U87 MG cells for 8 h, and the number of live cells was measured with the CCK-8 reagent.
Overnight cultures of E. coli 25922 were diluted with fresh Mueller–Hinton Broth (MHB) to an optical density at 600 nm (OD600) at 0.1 and further diluted at 1:100 with fresh MHB. Then 100 μL bacterial suspension was added in triplicate to the 96-well plate. The commercial (APeptides, China) and bio-produced Cecropin A or LL37 were serially diluted with MHB medium and added into the 96-well plate to final concentrations of 2 to 2000 nM. The plate was incubated at 37 °C for 18 h, and the OD600 values were measured with Synergy LX multi-mode reader (BioTek, USA). Broth with bacterial inoculum without AMP and broth alone were used as control groups in which the relative biomass was set as 1 and 0, respectively.

Mo7e cells = assay: Mo7e cell proliferation, CCK-8; type: cell-based; details: 1 pM-100 nM, 4 days, read-out: EC50, promotion of Mo7e cells' proliferation
Method: Fig. 5 Bioactivities determination of RGDS, IL-15, and ADH in the SHTXTHHly fusion form. U87 MG cells were incubated with SHTRGDSTHHly/SHTRGESTHHly, mouse anti-S tag antibody, and the second antibody in sequence, then the cell staining was measured by FACS (A). U87 MG cells were incubated with SHTRGDSTHHly/SHTRGESTHHly and transferred into a fibronectin-coated plate. At different times, the attached cells were subjected to the CCK-8 reagent for quantification (B). In other experiments, cells were stained with DiO dye (green) and observed with a fluorescence microscope (C). Mo7e cells were incubated with different concentrations (1 pM-100 nM) of IL-15 and SHTIL15THHly for 4 days, and the cell numbers were measured with a CCK-8 reagent (D). The activities of ADH and SHTADHTHHly were compared using Ethyl Acetoacetate as the substrate and NADH as the co-factor (E). The activity was measured at 340 nm to monitor the decrease in the absorbance of NADH quantitatively. S: Slope. […] PBS is a blank control.
Mo7e cells were plated in a 96-well plate with a cell number of twenty thousand per well. After 4 h incubation, serially diluted IL-15 and SHTIL15THHly were added. After 4 days of incubation, the proliferation of cells was measured using the CCK-8 reagent.

Molecule	minimum inhibitory concentration (MIC) (E. coli 25922)	EC50 (Mo7e cells)
CC[C@H](C)[C@H](NC(=O)CNC(=O)[C@H](CC(=O)O)NC(=O)[C@H](CCCNC(=N)N)NC(=O)[C@@H](NC(=O)[C@H](CC(N)=O)NC(=O)[C@H](CCC(N)=O)NC(=O)CNC(=O)[C@@H](NC(=O)[C@H](CCCCN)NC(=O)[C@H](CCC(=O)O)NC(=O)[C@@H](NC(=O)[C@H](CCCCN)NC(=O)[C@H](CCCCN)NC(=O)[C@H](Cc1ccccc1)NC(=O)[C@H](CC(C)C)NC(=O)[C@H](CCCCN)NC(=O)[C@H](Cc1c[nH]c2ccccc12)NC(=O)[C@@H](N)CCCCN)[C@@H](C)CC)C(C)C)[C@@H](C)CC)C(=O)N[C@H](C(=O)N[C@@H](CCCCN)C(=O)N[C@@H](C)C(=O)NCC(=O)N1CCC[C@H]1C(=O)N[C@@H](C)C(=O)N[C@H](C(=O)N[C@@H](C)C(=O)N[C@H](C(=O)N[C@H](C(=O)NCC(=O)N[C@@H](CCC(N)=O)C(=O)N[C@@H](C)C(=O)N[C@H](C(=O)N[C@@H](CCC(N)=O)C(=O)N[C@H](C(=O)N[C@@H](C)C(=O)N[C@@H](CCCCN)C(=O)O)[C@@H](C)CC)[C@@H](C)O)C(C)C)C(C)C)C(C)C)[C@@H](C)CC [cCeA, Cecropin A] (H-KWKLFKKIEKVGQNIRDGIIKAGPAVAVVGQATQIAK-OH)	0.85 µM	
CC[C@H](C)[C@H](NC(=O)[C@H](CCCCN)NC(=O)[C@H](CCC(=O)O)NC(=O)[C@H](CCCCN)NC(=O)[C@H](CO)NC(=O)[C@H](CCCCN)NC(=O)[C@H](CCCNC(=N)N)NC(=O)[C@H](Cc1ccccc1)NC(=O)[C@H](Cc1ccccc1)NC(=O)[C@H](CC(=O)O)NC(=O)CNC(=O)[C@H](CC(C)C)NC(=O)[C@@H](N)CC(C)C)C(=O)NCC(=O)N[C@@H](CCCCN)C(=O)N[C@@H](CCC(=O)O)C(=O)N[C@@H](Cc1ccccc1)C(=O)N[C@@H](CCCCN)C(=O)N[C@@H](CCCNC(=N)N)C(=O)N[C@H](C(=O)N[C@H](C(=O)N[C@@H](CCC(N)=O)C(=O)N[C@@H](CCCNC(=N)N)C(=O)N[C@H](C(=O)N[C@@H](CCCCN)C(=O)N[C@@H](CC(=O)O)C(=O)N[C@@H](Cc1ccccc1)C(=O)N[C@@H](CC(C)C)C(=O)N[C@@H](CCCNC(=N)N)C(=O)N[C@@H](CC(N)=O)C(=O)N[C@@H](CC(C)C)C(=O)N[C@H](C(=O)N1CCC[C@H]1C(=O)N[C@@H](CCCNC(=N)N)C(=O)N[C@H](C(=O)N[C@@H](CCC(=O)O)C(=O)N[C@@H](CO)C(=O)O)[C@@H](C)O)C(C)C)[C@@H](C)CC)C(C)C)[C@@H](C)CC [cL3, LL37]	1.87 µM	
IL-15: control monomeric IL-15		294 pM
